Where “and” joins values, the source holds several entries; their conditions need not be identical. Equal values may be shown once.
Columns and labels:
[1] = system: 17 coronavirus proteases from human and animal coronaviruses; assay type: cell-based
[2] = system: SARS-CoV-2; test: Antiviral efficacy in hamsters challenged intranasally with SARS-CoV-2, S.C. GC376; assay type: in vivo, hamster; settings: for trachea PFU: trachea samples
Source text: The hamsters were sacrificed and various tissues were collected for analysis.

[3] = system: SARS-CoV-2; test: microbe, parasite or virus in culture; assay type: cell-based; settings: Severe acute respiratory syndrome coronavirus 2; SARS-CoV-2 infected cells, dose response FIG. 3; read-out: EC50 against SARS-CoV-2
[4] = system: SARS-CoV-2 virus; test: Prophylactic treatment of a patient susceptible to COVID-19; assay type: in vivo; settings: human patient at risk, daily for 21 days beginning one week prior to possible exposure
[5] = system: SARS CoV-2; test: Antiviral efficacy of GC376 and REMDESIVIR in golden Syrian hamsters challenged intranasally with SARS-CoV-2, IP; assay type: in vivo, golden Syrian female hamsters; settings: for body weights: IP injection for eight days, versus control animals with SARS-CoV-2 alone; for lung PFU: lung samples, days 4 and 14
Source text: The animals were sacrificed at days 4, 8, or 14 following initiation of the experiment and the various tissues were then collected for analysis. Detailed experimental design and experimental parameters can be found in FIG. 9A, FIG. 9B, and FIG. 10.

[6] = system: COVID-19/SARS-CoV-2 virus; assay type: cell-based
[7] = system: SARS-CoV-2 viral infection; test: Treatment of a patient suffering from COVID-19; assay type: in vivo; settings: human patient, intravenous, subcutaneous, or oral, daily for 21 days
[8] = CC50 in the structure table of GC543 and GC583 (no method given); assay type: cell-based; settings: cells not given

SMILES: CC(C)C[C@H](NC(=O)OCc1ccccc1)C(=O)N[C@@H](C[C@@H]1CCNC1=O)C(O)S(=O)(=O)[O-].[Na+] (stereo partly drawn) [GC376]
- activity against coronavirus proteases [1]: activity across all coronaviruses tested, including SARS-CoV-2
- body weight at 10 mg/kg/day and 25 mg/kg/day ([2]; 10 mg/kg/day and 25 mg/kg/day, versus infected controls without GC376): appeared to lose more weight initially, but by the eighth day following initiation of the experiment had a body weight that was similar to the control animals
- lung PFU versus control ([2]; 100 mg/kg/day cohort): had fewer PFUs in their lungs than the control animal, although two animals had more PFUs than the control
- body weights of individual hamsters ([2]; each individual hamster, days 0-8, any dose): trend show for each animal to regain its normal body weight
- trachea PFU ([2]; 100 mg/kg/day group): did show noticeable PFU formation from trachea samples
- trachea PFU ([2]; all groups): most of the animals did not show PFUs from samples taken from the trachea
- EC50 [3]: ~0.81 µM
- outcome after prophylactic treatment [4]: not have developed COVID-19 or a SARS-CoV-2 infection
- body weights [5]: maintained similar body weights to the control animals
- lung PFU [5]: reduction of PFU at days 4 and 14
- lowering of virus titer ([6]; 5 μM GC376 versus virus solution without GC376): approximately 15 fold
- PFU/ml, average ([6]; virus solution with 5 μM GC376, average of three replicate plates): 2.1×10^6 pfu/ml
- PFU/ml, each replicate plate ([6]; virus solution with 5 μM GC376, individual plates): 2.75×10^6 pfu/ml and 2.25×10^6 pfu/ml and 1.30×10^6 pfu/ml
- outcome after 21 days of treatment [7]: recovered from the SARS-CoV-2 infection

SMILES: O=C[C@@H](C[C@@H]1CCNC1=O)NC(=O)[C@H](CC1CCCCC1)NC(=O)OCc1ccccc1 [GC543]
- CC50 [8]: > 100 µM

SMILES: O=C[C@@H](C[C@@H]1CCNC1=O)NC(=O)[C@H](CC1CCCCC1)NC(=O)OCc1cccc(Cl)c1 [GC583]
- CC50 [8]: > 100 µM

SMILES: CCC(CC)COC(=O)[C@H](C)N[P@](=O)(OC[C@H]1O[C@@](C#N)(c2ccc3c(N)ncnn23)[C@H](O)[C@@H]1O)Oc1ccccc1 [reference compound]
- body weights [5]: maintained similar body weights to the control animals
- lung PFU [5]: reduction of PFU at days 4 and 14
